According to PMC11412900 (Molecular Psychiatry, 2024):
Like-named read-outs stand apart in the source and are kept apart here.

Assays:
SERT [1] = biological target: T1, SERT (Homo sapiens, UniProt P31645); assay: Batch release of preloaded [3H]5-HT from HEK293 cells expressing SERT; type: cell-based; conditions: for 5-HT release at SERT: with or without monensin 10 µM; for 5-HT releasing activity: with or without monensin, pCA as positive control
T1 construct: YFP (yellow-fluorescent protein); expressed in transfected cells
Method: Batch release is a functional radiometric assay to assess transporter-mediated efflux. […] Subsequently, cells were washed three times with KHB and equilibrated for 10 min in KHB or KHB+monensin (10 µM). […] 10 µM pCA and 0.05 µM paroxetine were used as positive and negative controls, respectively. Liquid scintillation cocktail was added both to the wells containing cells (200 µL) and to the transferred supernatant (100 µL). Total radioactivity determined from/in the remaining lysate of the cells plus the transferred supernatant was set as 100%, and the radioactivity determined in each fraction was expressed as a percentage thereof. Assays were performed per duplicate for five independent experiments.

[2] = tested on: horizontal locomotor activity in mice; assay: Horizontal locomotor activity (HLA); type: in vivo; conditions: i.p., 30 min; for HLA (hypolocomotion) Emax (95% CI): total traveled distance
Method: The HLA test was carried out according to a previous study. The same animals (N = 8–10 per group) used for the assessment of HTR were recorded for 30 min in an observation arena, under low-light conditions with white noise. Video recordings were processed using a tracking software (Smart 3.0 Panlab, Barcelona, Spain) to measure the total traveled distance.
(§1) Data were expressed as means±standard deviation (SD). Competition, release and functional assays, and substrate-induced current curves were plotted and fitted by non-linear regression to obtain the IC50, EC50, and Emax values. For behavioral studies, data were fitted by non-linear regression and pED50 and Emax values (with the corresponding 95% CI) were estimated by means of a software (GraphPad Prism 10) that further extrapolates the data. The Cheng-Prusoff equation was used to calculate Ki (affinity): Ki = […]/(1 + [radioligand-concentration/Kd]). HTR curves were fitted using a Gaussian equation as described. Data from batch release assays were statistically analyzed with a mixed-effects model, employing Šidák’s correction for multiple comparisons. Total release at each concentration and the behavioral experiments with the corresponding antagonists were statistically analyzed using one-way ANOVA, followed by Tukey’s post-hoc test. Molecular volume (van der Waals) was calculated using a grid approximation (spacing 0.75 Å). logP was calculated using Molinspiration Cheminformatics software. For in vivo studies, one-way ANOVA with Dunnet’s post-hoc test was used to compare all conditions to saline in dose-response experiments when data were normally distributed. Otherwise, a non-parametric test (Kruskall-Wallis with Dunn’s post-hoc test) was used. Alpha was set at 0.05. Outliers were excluded following ROUT’s method (Q = 0.1%). All statistical analyses and Pearson correlations were conducted using GraphPad Prism 10 software (GraphPad software, San Diego, CA, USA).

[3] = tested on: core body temperature in mice; assay: Core body temperature measurement; type: in vivo; conditions: mice, i.p., 60 min after injection
Method: Rectal temperature of mice (N = 8–10 per group) was measured 60 min after i.p. injection of the corresponding compound (see previous section “Head twitch response”). This time point was chosen according to the maximal effect observed in pilot experiments. A thermocouple probe (YS451, Panlab, Barcelona, Spain) connected to a digital thermometer (TMP812RS, Panlab, Barcelona, Spain) was inserted 2 cm into the rectum and steady temperature readout was obtained after 10 s of insertion.
as §1

h5-HT2AR = biological target: T2, h5-HT2AR (Homo sapiens, UniProt P28223); type: binding; conditions: 1 nM [3H]ketanserin, N ≥ 3; read-out: 5-HT2AR Ki ± SD
T2 construct: purchased Perkin Elmer, Inc. (Waltham, MA, USA)
Method: (§2) Binding assays were performed as described previously. Briefly, membrane preparations expressing h5-HT1AR, h5-HT2AR or hSERT (see Supplementary Material) were incubated with radiolabeled selective ligands 0.4 nM [^3H]8-OH-DPAT, 1 nM [^3H]ketanserin or 3 nM [^3H]imipramine, respectively. The drugs were diluted in the corresponding binding buffer and tested at increasing concentrations in duplicate. Binding reactions were performed in tubes containing the drug dilutions; 25 μl of the corresponding radioligand; and the membranes (10 μg and 5 μg/500 μL for 5-HT1AR and 5-HT2AR, respectively, and 15 μg/100 μL for hSERT), all diluted in binding buffer. […] Incubation was performed for 1 h at 27 °C for 5-HT1A/2AR and 22 °C for hSERT, according to the manufacturer’s protocol (Perkin Elmer, Inc., Waltham, MA, USA) and previous studies - saturation and kinetic experiments, respectively. The binding reactions were stopped by rapid filtration through GF/B glass microfiber filters pre-soaked with 0.5% polyethyleneimine and washing with ice-cold wash buffer. The filters were placed into vials and scintillation cocktail was added. The trapped radioactivity was quantified. Specific binding was defined as the difference between total binding (binding buffer alone) and non-specific binding. Experiments were conducted per duplicate for at least three independent experiments.

SERT [4] = biological target: T1, SERT; assay: Radioligand binding, [3H]imipramine displacement
Method: as §2
The generation and maintenance of HEK293 cells stably expressing the yellow-fluorescent protein (YFP)-tagged version of the human isoform of SERT (hSERT) (Perkin Elmer, Waltham, MA, USA) was carried out as described previously. For uptake inhibition and batch release assays, cells were seeded onto previously poly-D-lysine (PDL)-coated 96-well plates at a density of 0.036 million cells per well [5]. For superfusion release assays, cells were seeded onto a previously coated with PDL 6 channel µ-slide at a density of 0.08 million cells per channel. Prior to patching, cells were grown in DMEM containing 10% FBS, Zeocin (150 µg/mL) and Blasticidin (6 µg/mL) for positive selection of transporter-expressing clones. The cells were seeded at a low density on PDL-coated 35 mm plates 24-48 hr prior to patching. For membrane preparation, HEK293 cells expressing hSERT transporters were harvested from 80–90% confluent dishes as described elsewhere. Protein concentration was determined using the Bio-RadProtein Reagent (Bio Rad Laboratories, Hercules, CA, USA). Membrane preparations were stored at −80°C until use. Generation and maintenance of CHO-K1 cells expressing the human isoform of 5-HT2AR (h5-HT2AR) was carried out as described in the manufacturer’s protocol (Perkin Elmer, Waltham, MA, USA). Routine DAPI-Staining assays tested negative in mycoplasma contamination.

SERT [5] = biological target: T1, SERT; assay: Whole-cell patch clamp, transporter-mediated currents in HEK293 cells; type: cell-based; conditions: for EC50: clamped at −60 mV, N = 5, read-out: SERT-mediated inward current EC50; for SERT-mediated inward current Emax: normalized to current elicited by 5-HT 10 µM; for SERT substrate type: whole-cell patch clamp
Source text: Whole-cell patch clamping was used to measure the transporter-mediated currents and performed as previously described. […] Cells were continuously superfused by a DAD-12 superfusion system and an 8-tube perfusion manifold (ALA Scientific Instruments in Farmingdale, NY, USA), which allowed to apply a physiological external solution. The pipette solution mimics the internal ionic composition of a cell. […] Passive holding currents were subtracted, and the traces were filtered using a 50-Hz digital Gaussian low-pass filter for analysis purposes. Five independent experiments were performed.

[6] = 3 nM [3H]imipramine, N ≥ 3, read-out: SERT Ki ± SD

T1 sequence (P31645 whole entry): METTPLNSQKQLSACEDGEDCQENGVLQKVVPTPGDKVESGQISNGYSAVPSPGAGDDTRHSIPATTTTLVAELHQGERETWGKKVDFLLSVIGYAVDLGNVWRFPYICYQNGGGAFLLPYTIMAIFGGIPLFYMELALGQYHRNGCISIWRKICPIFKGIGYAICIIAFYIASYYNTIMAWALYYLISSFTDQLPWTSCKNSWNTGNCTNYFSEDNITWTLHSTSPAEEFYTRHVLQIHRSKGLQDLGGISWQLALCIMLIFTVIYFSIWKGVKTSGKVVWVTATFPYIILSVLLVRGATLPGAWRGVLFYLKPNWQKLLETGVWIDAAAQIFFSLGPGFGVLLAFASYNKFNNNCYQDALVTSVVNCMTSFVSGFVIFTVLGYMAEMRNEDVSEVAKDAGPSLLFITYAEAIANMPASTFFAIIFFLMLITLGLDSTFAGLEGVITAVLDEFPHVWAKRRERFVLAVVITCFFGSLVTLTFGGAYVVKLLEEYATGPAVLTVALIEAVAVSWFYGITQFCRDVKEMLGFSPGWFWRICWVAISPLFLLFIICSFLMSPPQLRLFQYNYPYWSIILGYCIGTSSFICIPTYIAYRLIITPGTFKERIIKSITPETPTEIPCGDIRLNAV
T2 sequence (P28223 whole entry): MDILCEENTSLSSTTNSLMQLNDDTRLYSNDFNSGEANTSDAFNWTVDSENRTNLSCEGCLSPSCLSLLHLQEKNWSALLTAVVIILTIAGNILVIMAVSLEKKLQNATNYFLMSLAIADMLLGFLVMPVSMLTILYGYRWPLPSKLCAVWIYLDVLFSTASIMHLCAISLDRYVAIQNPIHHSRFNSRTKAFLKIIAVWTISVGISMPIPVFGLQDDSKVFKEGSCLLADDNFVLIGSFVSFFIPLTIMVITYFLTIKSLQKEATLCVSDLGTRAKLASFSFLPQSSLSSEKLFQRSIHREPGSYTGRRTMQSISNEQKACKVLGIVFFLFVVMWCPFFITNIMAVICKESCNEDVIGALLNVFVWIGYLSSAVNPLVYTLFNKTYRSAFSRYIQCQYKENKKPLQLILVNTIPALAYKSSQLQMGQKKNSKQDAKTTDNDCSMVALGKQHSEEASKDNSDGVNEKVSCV

Structure (SMILES) | 5-HT release at SERT (SERT [1]) [% total cpm] | HLA (hypolocomotion) ED50 [2] [mg/kg] | HLA (hypolocomotion) Emax (95% CI) [2] | Change in body temperature ED50 [3] [mg/kg] | Ki (h5-HT2AR) [nM] | Ki (SERT [4]; [6]) [nM] | 5-HT releasing activity (SERT [1]) | EC50 (SERT [5]) [nM] | SERT-mediated inward current Emax (SERT [5]) | SERT substrate type (SERT [5]) | ED50 ([2]; Mus musculus, ip, 0.5 h, read-out: HLA (hypolocomotion) ED50) [mg/kg] | ED50 ([3]; Mus musculus, ip, 1 h, read-out: Change in body temperature ED50) [mg/kg] | Ki (SERT [4]) [nM]
CCN(CCc1c[nH]c2ccc(OC)cc12)C(C)C [5-MeO-EIPT] | < 10 | 4.82 | 68.02 (54.57–81.46) % reduction | 15.0 | 151 ± 26 | 1780 ± 83 |  |  |  |  |  |  | 
COc1ccc2[nH]cc(CCN(C)C(C)C)c2c1 [5-MeO-MIPT] | < 10 | 6.57 | 82.78 (62.16–103.4) % reduction | 14.8 | 147 ± 32 | 2870 ± 928 | slight to none 5-HT releasing activity |  |  |  |  |  | 
CCN(C)CCc1c[nH]c2ccc(OC)cc12 [5-MeO-MET] |  | 1.70 | 66.79 (58.20–75.37) % reduction | 4.76 | 94.1 ± 16.7 | 7710 ± 3380 | capable of evoking 5-HT release | 13000 | 0.46 | partial SERT substrates |  |  | 
COc1ccc2[nH]cc(CCN3CCCC3)c2c1 [5-MeO-pyr-T] |  | 1.60 | 71.25 (60.71–81.79) % reduction | 2.89 | 373 ± 59 | 3010 ± 354 | capable of evoking 5-HT release | 90 | 0.49 | partial SERT substrates |  |  | 
COc1ccc2[nH]cc(CCN(C(C)C)C(C)C)c2c1 [5-MeO-DIPT, 5-methoxy-N,N-diisopropyltryptamine] |  |  | 55.32 (38.20–72.44) % reduction |  |  |  | slight to none 5-HT releasing activity |  |  |  | 4.52 | 14.8 | 1620 ± 475
C=CCN(CC=C)CCc1c[nH]c2ccc(OC)cc12 [5-MeO-DALT] |  | 6.22 | 73.11 (57.45–88.78) % reduction | 13.6 | 71.7 ± 14.8 | 1190 ± 96 | slight to none 5-HT releasing activity |  |  |  |  |  | 
CCN(CC)CCc1c[nH]c2ccc(OC)cc12 [5-MeO-DET] |  | 4.78 | 63.56 (37.58–89.53) % reduction | 7.18 | 128 ± 4 | 10400 | capable of evoking 5-HT release | 3500 | 0.26 | partial SERT substrates |  |  | 
